Measured values: patent US5698541A, “2,4-diphosphonoglutaric acid derivatives, processes for their production and pharmaceutical agents containing these compounds” (Boehringer Mannheim GmbH, priority 1994, dated 1997)

System: non-stimulated bone resorption
Test: Inhibition of non-stimulated bone resorption by determining the excretion of [3H]-tetracycline in urine
Type: in vivo
Conditions: rats, subcutaneous, 2 × 200 mg/kg (8 a.m. and 5 p.m. on sixth day of urine collection); reduced [3H]-tetracycline excretion in urine on eighth day
Experimental: Inhibition of non-stimulated bone resorption by determining the excretion of [^3 H]-tetracycline in urine:
From birth onwards rats received a twice-weekly injection of increasing amounts of a solution of 3.7×10^5 Bq/ml (10 μCi/ml) [7-^3 H]-tetracycline ([^3 H]TC); New England Nuclear, Boston, Mass.) with a specific activity of 679 mCi/mmol. The volume per injection is increased from 50 μl/week to 250 μl in the fifth week and kept at this level for a further week. The total amount of administered [^3 H]TC was 20 μCi per rat. 51-day-old rats are transferred to individual metabolic cages and received a group feeding with feed which contained 0.5% Ca and 0.35% P. This feed was produced by addition of appropriate amounts of calcium and phosphate (SODI 2134, "Klingenthalmuhle"). The animals received distilled water ad libitum during the entire duration of the experiment. Collection of 24 hour urine was begun after 61 days. The urine was collected daily at 11 o'clock; the animals also received food at this time. On the sixth day after the start of the urine collection, the animals received subcutaneous injections of the substance (at 8 a.m. and 5 p.m.). […] The ^3 H-TC in urine is determined by liquid scintillation by adding 10 ml of the scintillator Pico-Fluor 30 (Packard International, Zurich, Switzerland) to 1 ml of the urine. […]

Compound | % rel. inhibition/dosage
O=C(O)C(CC(CCCN1CCCC1)(C(=O)O)P(=O)(O)O)P(=O)(O)O (centres unmarked) [Example 4, 2,4-diphosphono-2-pyrrolidinopropylglutaric acid] | 37%
NCCCCC(CC(C(=O)O)P(=O)(O)O)(C(=O)O)P(=O)(O)O (centres unmarked) [Example 5] | 45%
